For assay [1], the target named is T1, human TLR7 (Homo sapiens, UniProt Q9NYK1).
T1 construct: host or cells: HEK293
T1 sequence (Q9NYK1 27-1049): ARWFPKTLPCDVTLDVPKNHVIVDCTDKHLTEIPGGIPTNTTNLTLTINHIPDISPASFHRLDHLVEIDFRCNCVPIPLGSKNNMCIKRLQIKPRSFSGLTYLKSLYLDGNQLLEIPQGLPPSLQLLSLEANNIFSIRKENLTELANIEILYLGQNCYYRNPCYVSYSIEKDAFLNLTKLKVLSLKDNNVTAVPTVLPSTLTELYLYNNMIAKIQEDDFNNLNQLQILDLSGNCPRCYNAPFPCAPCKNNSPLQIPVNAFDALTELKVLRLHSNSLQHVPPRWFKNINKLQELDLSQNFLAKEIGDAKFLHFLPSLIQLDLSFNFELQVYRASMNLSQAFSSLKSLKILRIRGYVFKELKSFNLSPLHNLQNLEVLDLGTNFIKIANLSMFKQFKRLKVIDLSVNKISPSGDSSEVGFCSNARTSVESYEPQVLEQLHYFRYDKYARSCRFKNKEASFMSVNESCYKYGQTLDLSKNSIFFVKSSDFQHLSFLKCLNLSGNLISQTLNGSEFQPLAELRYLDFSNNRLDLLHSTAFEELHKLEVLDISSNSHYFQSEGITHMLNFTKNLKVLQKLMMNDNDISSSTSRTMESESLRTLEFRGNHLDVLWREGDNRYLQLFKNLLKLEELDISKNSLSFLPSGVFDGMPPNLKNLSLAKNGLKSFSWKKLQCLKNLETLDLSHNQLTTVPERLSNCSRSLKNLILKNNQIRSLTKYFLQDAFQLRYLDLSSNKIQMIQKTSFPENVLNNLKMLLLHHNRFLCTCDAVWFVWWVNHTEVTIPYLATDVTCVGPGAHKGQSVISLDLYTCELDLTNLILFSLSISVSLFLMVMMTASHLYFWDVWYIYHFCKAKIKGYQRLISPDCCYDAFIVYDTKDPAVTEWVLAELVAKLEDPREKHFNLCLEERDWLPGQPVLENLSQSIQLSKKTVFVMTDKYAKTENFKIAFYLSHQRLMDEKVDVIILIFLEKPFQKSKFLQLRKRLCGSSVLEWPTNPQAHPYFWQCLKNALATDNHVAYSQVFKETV
Kind of assay: TLR7 reporter cell assay (HEK293 cells stably expressing human TLR7 with NF-κB-driven SEAP reporter). Type of assay: cell-based. The following applies: for EC50: fit of SEAP dose response, ymax from 28.5 μM resiquimod. From the text: The engagement of TLRs by cognate ligands triggers downstream signaling cascades, leading to the activation of NF-κB and other transcription factors which initiate various immunomodulatory effects. The human embryonic kidney cell line, HEK293, is essentially non-responsive to TLR agonists, but ectopic expression of TLRs in these cells allows cognate agonists to activate endogenous NF-κB. Accordingly, the HEK293-TLR-NF-κB inducible reporter system is used to assay TLR agonists.
HEK293 cell lines stably expressing human TLR7 or TLR8 together with an NF-κB-driven-secreted alkaline phosphatase (SEAP) reporter were invented at InvivoGen (San Diego, California, USA) and used to assess compounds of the present invention for TLR7 and TLR8 agonist activities. Cells were seeded at 2-5×10^4 cells/well in 96 well plates (200 μl/well) and treated with various concentrations of compound (10 μl) for 15-24 hours. SEAP activity was determined by measuring OD at 650 nm; the media used to culture the cell lines contains the reagents required for SEAP detection. The EC50 values in Table 1 are calculated from fitting the dose response of measured SEAP activity for each compound to the following equation: Y=ymax*c^nh/(EC50^nh+c^nh)+blank where Y is the experimentally measured OD650 at concentration c of test article, blank is the observed OD650 in the absence of TLR7 agonist, ymax is the difference between the measured OD650 in the presence of 28.5 μM resiquimod and the blank and values of EC50 and nh are determined by nonlinear least squares analysis. Resiquimod is a known TLR7 and TLR8 agonist.
Compound A is 5-amino-3-((2R,3R,5S)-3-hydroxy-5-((S)-1-hydroxypropyl)tetrahydrofuran-2-yl)thiazolo[4,5-d]pyrimidine-2,7(3H,6H)-dione)

Assay [2] deals with hPBMCs (Human Peripheral Blood Mononuclear Cells). The experiment in a line: Induction of interferon-α in hPBMCs in vitro. Type of assay: cell-based. As to conditions: for Emax / minimal effective concentration: Homo sapiens, PBMC; for Emax: 24 h, peak IFNα2a as percentage of peak response of standard 2-Amino-7-(cyclopropylmethyl)-9-B-D-xylofuranosyl-7,9-dihydro-1H-purine-6,8-dione, averaged across donors, read-out: IFNrmax, Relative Maximal IFNα2a Production (%); for minimal effective concentration: minimal effective concentration for interferon-α production (generally at least 80 pg/ml above baseline), geometric mean across at least three donors, 24 hours, read-out: Weighted MEC; for Donor 1 IFNmax / Donor 2 IFNmax / Donor 3 IFNmax: maximum IFN at any concentration of the evaluated range. As to the method: Treatment of hPBMCs with a TLR7 agonist typically induces some production of interferon-α as well as lesser amounts of a variety of other cytokines and chemokines. A typical experiment uses hPBMCs isolated from a healthy donor and placed in replicate cell culture wells; typically 1.0-7.5×10^6 cells are placed in each well. A test compound is added and the cells are cultured for 24 hours at 37° C. in a humidified atmosphere containing 5% CO2 post-addition; untreated controls are included. Secreted interferon-α production is measured using an a multisubtype interferon-α ELISA kit like those from PBL Assay Sciences or specifically as IFNα2a as part of a panel of cytokines and chemokines using luminex methodologies.
The minimal effective concentration (MEC) is the minimum concentration in a dose response curve where a significant increase in interferon-α production (generally at least 80 pg/ml) is observed above baseline. MEC values for each compound are determined for at least three donors. The weighted MEC for each compound is the geometric mean of all individual MECs across all donors. Concentrations tested typically consist of a two-fold dilution series starting at 100 μM. In the calculation of weighted MEC, any individual MEC value greater the highest concentration tested is arbitrarily set to two times the highest concentration tested unless all MECs for a compound exceed this value. The maximal amount of IFNα2a for each donor is determined from dose dependence for each compound.
In order to normalize for variation in each hPBMC preparation, these values are first transformed by expressing as a percentage of peak response measured with a standard (2-Amino-7-(cyclopropylmethyl)-9-B-D-xylofuranosyl-7,9-dihydro-1H-purine-6,8-dione) and then averaging the results across all donors, this average referred to as IFNrmax.
IFNmax is the maximum amount of IFN observed at any concentration across the evaluated concentration range. MEC and IFNmax values for three select compound are shown for three donors (Table 3). The range of tested concentrations were 0.625-5 μM for Imiquimod, 3.125-100 μM for both Compound A and Compound 1, 12.5-100 μM for Compound 2.

The mark [3] stands for this setting: HEK293, 500 μM compound, SEAP activity (OD 650 nm) relative to 28.5 μM resiquimod, 15-24 hours, read-out: Response at 500 μM Compound as a Percent of Resiquimod Response.
Setting [4] is: HEK293, read-out: Response at 500 μM Compound as a Percent of Resiquimod Response.

Like-named read-outs stand apart in the source and are kept apart here.

For `CC[C@H](O)[C@@H]1C[C@@H](O)[C@H](n2c(=O)n(C[C@@H](C)O)c3c(=O)[nH]c(N)nc32)O1` (single isomer, unassigned) [Compound 33], in assay [1] (setting [3]), the Emax at 500 µM stood at 73%. In assay [1] (15-24 hours), this compound showed an EC50 of 287 µM. Moreover, in assay [2], the Emax was determined as 143% and the minimal effective concentration was 9.9 µM.
For `CC[C@H](O)[C@@H]1C[C@@H](O)[C@H](n2c(=O)n(C[C@H](C)O)c3c(=O)[nH]c(N)nc32)O1` (single isomer, unassigned) [Compound 34], in that order: 81%, 137 µM, 272% and 1.6 µM.
On to `C#CCn1c(=O)n([C@@H]2O[C@H]([C@@H](O)CC)C[C@H]2O)c2nc(N)[nH]c(=O)c21` [Compound 1, 2-amino-9-((2R,3R,5S)-3-hydroxy-5-((S)-1-hydroxypropyl)tetrahydrofuran-2-yl)-7-(prop-2-yn-1-yl)-7,9-dihydro-1H-purine-6,8-dione], for which, in assay [1] (setting [3]), the Emax at 500 µM amounted to 67%. Further, in assay [1] (15-24 hours), the EC50 came out at 103 µM. The “Donor 1 IFNmax” value in assay [2] (Donor 1) was determined as 3775 pg/mL. Besides, the “Donor 2 MEC” value in assay [2] (interferon-α production) amounted to 6.25 µM. Moreover, in assay [2], the “Donor 2 IFNmax” value was 2129 pg/mL, the Emax was 316% and the minimal effective concentration is at most 2.9 µM. Besides, the “Donor 3 IFNmax” value in assay [2] (Donor 3) was determined as 5623 pg/mL. Further, in assay [2] (donor 1), the “IFNmax of Compound 1 relative to Compound A” value turned out to be 3.6 fold and the “IFNmax of Compound 1 relative to imiquimod” value is given as 4.8 fold. Besides, in assay [2] (donor 2), the “IFNmax of Compound 1 relative to Compound A” value is 4.4 fold and the “IFNmax of Compound 1 relative to imiquimod” value came to 11.0 fold. Moreover, in assay [2] (donor 3), the “IFNmax of Compound 1 relative to Compound A” value is reported as 2.5 fold and the “IFNmax of Compound 1 relative to imiquimod” value is 4.2 fold. Moreover, the “potency (MEC) of Compound 1 relative to Compound 2” value in assay [2] (in every case (Donors 1, 2 and 3)) is recorded as at least 16 fold.
Regarding `C=C=Cn1c(=O)n([C@@H]2O[C@H]([C@H](O)CC)C[C@H]2O)c2nc(N)[nH]c(=O)c21` [Compound 3, 2-amino-9-((2R,3R,5S)-3-hydroxy-5-((R)-1-hydroxypropyl)tetrahydrofuran-2-yl)-7-(propa-1,2-dien-1-yl)-7,9-dihydro-1H-purine-6,8-dione], the Emax at 500 µM in assay [1] (setting [4]) is below 5%.
For the compound `C#CCn1c(=O)n([C@@H]2O[C@H]([C@@H](O)C(F)(F)F)C[C@H]2O)c2nc(N)[nH]c(=O)c21` [Compound 10, 2-Amino-9-((2R,3R,5S)-3-hydroxy-5-((R)-2,2,2-trifluoro-1-hydroxyethyl)tetrahydrofuran-2-yl)-7-(prop-2-yn-1-yl)-7,9-dihydro-1H-purine-6,8-dione], the Emax at 500 µM in assay [1] (setting [4]) stood at 72%. Further, in assay [1] (15-24 hours), the EC50 was determined as 311 µM.
Regarding `C#CCn1c(=O)n([C@@H]2O[C@H]([C@H](O)C(F)(F)F)C[C@H]2O)c2nc(N)[nH]c(=O)c21` [Compound 11, 2-Amino-9-((2R,3R,5S)-3-hydroxy-5-((S)-2,2,2-trifluoro-1-hydroxyethyl)tetrahydrofuran-2-yl)-7-(prop-2-yn-1-yl)-7,9-dihydro-1H-purine-6,8-dione], the Emax at 500 µM in assay [1] (setting [4]) was below 5%.
As to `C#CCn1c(=O)n([C@@H]2O[C@H]([C@H](O)CC)[C@H](F)[C@H]2O)c2nc(N)[nH]c(=O)c21` [Compound 12, 2-Amino-9-((2R,3S,4R,5R)-4-fluoro-3-hydroxy-5-((R)-1-hydroxypropyl)tetrahydrofuran-2-yl)-7-(prop-2-yn-1-yl)-7,9-dihydro-1H-purine-6,8-dione], in assay [1] (setting [4]), the Emax at 500 µM came to 6%. In addition, in assay [1] (15-24 hours), the half-maximal effective concentration (EC50) is above 500 µM.
As for `C#CCn1c(=O)n([C@@H]2O[C@H](C(=O)CC)C[C@H]2O)c2nc(N)[nH]c(=O)c21` [Compound 37, 2-Amino-9-((2R,3R,5S)-3-hydroxy-5-propionyltetrahydrofuran-2-yl)-7-(prop-2-yn-1-yl)-7,9-dihydro-1H-purine-6,8-dione], the Emax at 500 µM in assay [1] (setting [4]) stood at 40%. Moreover, the midpoint of the response in assay [1] (15-24 hours), the EC50, lay at 462 µM.
As for `C#CCn1c(=O)n([C@@H]2O[C@@H](C(=O)CC)C[C@H]2O)c2nc(N)[nH]c(=O)c21` [Compound 38, 2-Amino-9-((2R,3R,5R)-3-hydroxy-5-propionyltetrahydrofuran-2-yl)-7-(prop-2-yn-1-yl)-7,9-dihydro-1H-purine-6,8-dione], the Emax at 500 µM in assay [1] (setting [4]) was below 5%.
Regarding `C#CCn1c(=O)n([C@@H]2O[C@H](CO)[C@@H](F)[C@H]2O)c2nc(N)[nH]c(=O)c21` [Compound B, 2-Amino-9-((2R,3S,4S,5R)-4-fluoro-3-hydroxy-5-(hydroxymethyl)tetrahydrofuran-2-yl)-7-(prop-2-yn-1-yl)-7,9-dihydro-1H-purine-6,8-dione, reference compound], in assay [2], the Emax was determined as 260% and the minimal effective concentration was determined as 17.9 µM.
For the compound `CC(C)Cn1cnc2c(N)nc3ccccc3c21` [Imiquimod, reference compound], the “Donor 1 MEC” value in assay [2] (Donor 1, interferon-α production) came to 5 µM. Also, the “Donor 1 IFNmax” value in assay [2] (Donor 1) amounted to 793 pg/mL. Also, the “Donor 2 MEC” value in assay [2] (interferon-α production) turned out to be 5 µM. Moreover, the “Donor 2 IFNmax” value in assay [2] was 193 pg/mL. For the same compound, in assay [2] (Donor 3, interferon-α production), the “Donor 3 MEC” value was determined as 1.25 µM. In addition, the “Donor 3 IFNmax” value in assay [2] (Donor 3) amounted to 1350 pg/mL.

As a reminder, the EC50 is the concentration giving half of the maximal effect. A low value points to a more potent agent.

These data come from patent publication US12187759B2, “TLR7 agonists” (Primmune Therapeutics, Inc., priority 2019, dated 2025).
